According to patent US20050244916A1, “Methods for predicting protein activity based on identification of multidimensional signatures” (priority 2004, published 2005):
Entries after “also recorded” stand apart in the source; their conditions may differ.

Experiments:
[1] = literature statement, organisms not given; cited from earlier work
[2] = tested on: Staphylococcus aureus (ATCC 27217), Bacillus subtilis (ATCC 6633), Escherichia coli (strain ML-35); assay: solid-phase radial diffusion antimicrobial assay, bacteria; format: cell-based; conditions: for antimicrobial activity compared with standard control defensin HNP-1: pH-specific, organism not specified (panel of bacteria and C. albicans); for antimicrobial activity against bacteria (zones of complete or partial inhibition): radial diffusion, pH 5.5 or pH 7.5, read after 24 h, S. aureus, B. subtilis, E. coli
Procedure: (§1) Standard radial diffusion assays were conducted using 10 μg of specified peptide: defensin HNP-1 (HNP); brazzein (BRZ); charybdotoxin (CTX); or metallothionein II (MTL). Recombinant brazzein reflecting the published 3-dimensional structure (1BRZ) as determined by nuclear magnetic resonance spectroscopy was kindly provided by Drs. J. L. Markley and F. M. Assadi-Porter, the University of Wisconsin 25. Charybdotoxin, metallothionein II, and defensin HNP-1 were obtained from commercial sources. Antimicrobial activity was assessed using a well-established solid-phase diffusion method as described by Tang et al., Infect. Immun. 70: 6524-6533 (2002). Assays included well characterized organisms: Staphylococcus aureus (ATCC 27217, Gram-positive coccus); Bacillus subtilis (ATCC 6633, Gram-positive bacillus); Escherichia coli (strain ML-35, Gram-negative bacillus); and Candida albicans (ATCC 36082, fungus). In brief, organisms were cultured to logarithmic phase and inoculated (106 colony forming units/ml) into buffered molecular-biology grade agarose at the indicated pH. Peptides resuspended in sterile deionized water were introduced into wells formed in the underlay, and incubated for 3 h at 37° C. Nutrient-containing overlay medium was then applied, and assays incubated at 37° C. or 30° C. for bacteria or fungi, respectively. After 24 h, zones of complete or partial inhibition were measured. All assays were repeated independently a minimum of two times at pH 5.5 (panels A-D) or pH 7.5 (panels E-H) to assess the influences of pH on peptide antimicrobial activities versus microorganisms. Histograms express mean (±standard deviation) zones of complete (blue) or incomplete (yellow) inhibition of growth. […] Note differences in scale.
(§2) These peptides were tested for antimicrobial activity against a panel of Gram-positive (Staphylococcus aureus, Bacillus subtilis) and Gram-negative (Escherichia coli) bacteria, and the fungus Candida albicans, using a well-established and sensitive in vitro assay [Antimicrobial activity was assessed using a well-established solid-phase diffusion method. Assays included well-characterized organisms: Staphylococcus aureus (ATCC 27217, Gram-positive); Bacillus subtilis (ATCC 6633, Gram-positive); Escherichia coli (strain ML-35, Gram-negative); and Candida albicans (ATCC 36082, fungus). In brief, organisms were cultured to logarithmic phase and inoculated at a density of 10^6 colony forming units/ml in buffered molecular grade agarose at the indicated pH. Five μg of peptide resuspended in sterile deionized water were introduced into wells formed in the underlay, and incubated for 3 h at 37° C. Nutrient-containing overlay medium was then applied, and assays incubated at 37° C. or 30° C. for bacteria or fungi, respectively. Defensin HNP-1 was tested in parallel as a standard control. After 24 h, zones of complete or partial inhibition were measured. All assays were repeated independently a minimum of two times. Tang et al., Infect. Immun. 70:6524 (2002) for detailed methodology.].

[3] = tested on: Candida albicans (ATCC 36082); assay: solid-phase radial diffusion antimicrobial assay, fungus; format: cell-based; conditions: pH 5.5 or pH 7.5, read after 24 h
Procedure: as §1
as §2, with “Nutrient-containing overlay medium was then applied, and assays incubated at 37° C. or 30° C. for bacteria or fungi, respectively. Defensin HNP-1 was tested in parallel as a standard control.” left out, “All assays were repeated independently a minimum of two times. Tang et al., Infect. Immun. 70:6524 (2002) for detailed methodology.].” left out

Which direct antimicrobial activity [1] does the source give for “RANTES: β-chemokine, releasable upon activation normal T cell expressed/secreted” here?
The direct antimicrobial activity was “direct antimicrobial activity”.

For “MIG/CXCL9: monokine induced by interferon-γ”, which direct antimicrobial activity [1] is on record?
Its direct antimicrobial activity is “direct antimicrobial activity”.

For “brazzein: sweetener protein from Pentadiplandra (J'Oblie berry); recombinant, structure 1BRZ (QDKCKKVYENYPVSKCQLANQCNYDCKLDKHARSGECFYDEKRNLQCICDYCEY; UniProt P56552 1-54, looked up)”, which “antimicrobial activity compared with standard control defensin HNP-1” value [2] is on record?
The value was “in some conditions exceeded that of HNP-1”.

What about the “antimicrobial activity against bacteria (zones of complete or partial inhibition)” value [2] of the same molecule?
Its value is “direct antimicrobial activities; also recorded: previously unrecognized antimicrobial activity; also recorded: exerted direct antimicrobial activity”.

What about the “antimicrobial activity against C. albicans (zones of complete or partial inhibition)” value [3] of the same molecule?
Its value is “direct antimicrobial activities; also recorded: previously unrecognized antimicrobial activity; also recorded: exerted direct antimicrobial activity”.

Which “antimicrobial activity against bacteria (zones of complete or partial inhibition)” value [2] does the source give for “metallothionein II: prototype metallothionein (Saccharomyces, 1AOO) lacking the γ-core motif; comparator predicted to lack antimicrobial activity (QNEGHECQCQCGSCKNNEQCQKSCSCPTGCNSDDKCPCGNKSEETKKSCCSGK; UniProt P0CX80 9-61, looked up)” here?
The value was “devoid of antimicrobial activity; also recorded: failed to exert antimicrobial activity”.

What about the “antimicrobial activity against bacteria (zones of complete or partial inhibition)” value ([2]; listed as Metallothionein II) of the same molecule?
The value was “lacked antimicrobial activity”.

What about the “antimicrobial activity against C. albicans (zones of complete or partial inhibition)” value [3] of the same molecule?
Its value is “devoid of antimicrobial activity; also recorded: failed to exert antimicrobial activity”.

And the “antimicrobial activity against C. albicans (zones of complete or partial inhibition)” value ([3]; listed as Metallothionein II)?
Its value is “lacked antimicrobial activity”.

Which “antimicrobial activity compared with standard control defensin HNP-1” value [2] does the source give for charybdotoxin here?
Its value is “in some conditions exceeded that of HNP-1”.

And the “antimicrobial activity against bacteria (zones of complete or partial inhibition)” value [2]?
Its value is “direct antimicrobial activities; also recorded: previously unrecognized antimicrobial activity; also recorded: exerted direct antimicrobial activity”.

What about the “antimicrobial activity against C. albicans (zones of complete or partial inhibition)” value [3] of the same molecule?
The value was “direct antimicrobial activities; also recorded: previously unrecognized antimicrobial activity; also recorded: exerted direct antimicrobial activity”.

For “PF-4: chemokine, human platelet factor-4”, which direct antimicrobial activity [1] is on record?
Its direct antimicrobial activity is “direct antimicrobial activity”.

For “IP-10/CXCL10: interferon-γ inducible protein-10 kDa”, which direct antimicrobial activity [1] is on record?
The direct antimicrobial activity was “direct antimicrobial activity”.

For “ITAC/CXCL11: interferon-inducible T cell α chemoattractant”, which direct antimicrobial activity [1] is on record?
Its direct antimicrobial activity is “direct antimicrobial activity”.

B1: PBP: chemokine, platelet basic peptide (protein, UniProt P02775 35-128, looked up)
Platelet basic protein: SSTKGQTKRNLAKGKEESLDSDLYAELRCMCIKTTSGIHPKNIQSLEVIGKGTHCNQVEVIATLKDGRKICLDPDAPRIKKIVQKKLAGDESAD
modifications: Platelet basic protein
notes: chemokine, platelet basic peptide
With B1 as the molecule, how does the direct antimicrobial activity [1] read?
The direct antimicrobial activity was “direct antimicrobial activity”.
